Test [1] relates to ovarian cancer cell line IGROV1. As to the kind of experiment: Cell proliferation inhibitory activity, IGROV1. Conditions: Homo sapiens, IGROV-1, 96 h, cells counted 4 days later with Cell Counting Kit-8. It counts as cell-based. The protocol:
(§1) Evaluations were carried out using colon carcinoma cell line SW620 (Cat. No. CCL-227), lung carcinoma cell line NCI-H460 (Cat. No. HTB-177), prostate cancer cell line DU 145 (Cat. No. HTB-81), breast cancer cell line MDA-MB-231 (Cat. No. HTB26) and leukemia cell line KG-1a (Cat. No. CCL-246.1) purchased from ATCC, pancreatic cancer cell line MIAPaCa-2 (Cat. No. CRL-1420) purchased from Dainippon Pharmaceutical, and ovarian cancer cell line IGROV1 received from the Netherland Cancer Institute. The cells were cultured under the conditions recommended by the supplier for each cell line, or with respect to IGROV1, according to the method described in Cancer Res. 59: 4559-4563, 1999. Cells suspended in media were added to solutions containing the test substances at various concentrations followed by culturing in a 5% CO2 incubator at 37° C. The numbers of cells were counted 4 days later with the Cell Counting Kit-8. IC50 values were calculated by assigning measured values in the case of not containing a test substance to an inhibition of 0%, and assigning measured values in the case of not containing a test substance or cells to an inhibition of 100%.
(In general: Tetrazolium assays rely on reduction of a dye to a coloured formazan, in cell work by metabolically active cells.)

The next test has as its target T1, CDK3/Cyclin E complex (Homo sapiens, UniProt Q00526).
T1 construct: purchased Upstate Inc. 14-487
As to the kind of experiment: In vitro kinase assay, CDK3/Cyclin E complex. In kind it is biochemical. The settings on record: recombinant protein (Upstate); read-out: CDK3/cyclinE IC50. The protocol:
(§2) Inhibitory activity against Aurora A, CDK1/Cyclin B complex, CDK2/Cyclin E complex and CDK3/Cyclin E complex were measured by in vitro kinase assay using recombinant proteins.

Test [2] relates to lung carcinoma cell line NCI-H460. As to the kind of experiment: Cell proliferation inhibitory activity, NCI-H460. It counts as cell-based. Conditions: Homo sapiens, 96 h, cells counted 4 days later with Cell Counting Kit-8. An outline of the steps: (§3)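 Read-out: Cell Counting Kit-8 cell counts taken 4 days after cells in medium were added to graded test-substance concentrations. Incubation was at 37° C under 5% CO2. IC50 values were based on vehicle wells set to 0% inhibition and wells lacking compound and cells set to 100%.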

The next test relates to leukemia cell line KG-1a. As to the kind of experiment: Cell proliferation inhibitory activity, KG-1a. It counts as cell-based. The settings on record: Homo sapiens, 96 h, cells counted 4 days later with Cell Counting Kit-8. The method in brief: as §3
A further test has as its target T2, Aurora A (Homo sapiens, UniProt O14965).
T2 construct: purchased Upstate Inc. 14-511
T2 sequence (O14965 1-403): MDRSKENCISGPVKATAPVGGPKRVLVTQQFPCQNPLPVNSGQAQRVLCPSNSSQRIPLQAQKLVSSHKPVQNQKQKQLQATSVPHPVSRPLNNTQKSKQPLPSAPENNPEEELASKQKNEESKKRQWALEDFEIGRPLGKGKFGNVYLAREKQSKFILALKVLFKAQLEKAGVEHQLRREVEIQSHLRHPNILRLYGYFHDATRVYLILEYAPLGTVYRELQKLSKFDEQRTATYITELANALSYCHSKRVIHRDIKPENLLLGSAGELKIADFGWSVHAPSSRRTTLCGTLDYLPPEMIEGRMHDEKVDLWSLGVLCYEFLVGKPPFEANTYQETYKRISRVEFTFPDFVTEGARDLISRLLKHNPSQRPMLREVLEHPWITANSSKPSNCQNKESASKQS
The test is described as follows: In vitro kinase assay, Aurora A. The settings on record: recombinant protein (Upstate). It counts as biochemical. The method in brief: (§4)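 Recombinant human enzymes assayed per supplier protocol. IC50 derived with compound-free wells set as 0% inhibition and compound- and enzyme-free wells as 100% inhibition.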

Another test deals with CDK2/Cyclin E complex (Homo sapiens, UniProt P24941). The test is described as follows: In vitro kinase assay, CDK2/Cyclin E complex. It counts as biochemical. Conditions: recombinant protein (Upstate); read-out: CDK2/cyclinE IC50. On the procedure: as §2
Test [3] deals with breast cancer cell line MDA-MB-231. The test is described as follows: Cell proliferation inhibitory activity, MDA-MB-231. It counts as cell-based. The settings on record: Homo sapiens, 96 h, cells counted 4 days later with Cell Counting Kit-8. The protocol:
as §1

Another test concerns the target T3, CDK1/Cyclin B complex (Homo sapiens, UniProt P06493).
T3 construct: purchased Upstate Inc. 14-450
The test is described as follows: In vitro kinase assay, CDK1/Cyclin B complex. In kind it is biochemical. The settings on record: recombinant protein (Upstate). The method in brief: as §4

The test system of test [4] is pancreatic cancer cell line MIAPaCa-2. As to the kind of experiment: Cell proliferation inhibitory activity, MIAPaCa-2. It counts as cell-based. Conditions: Homo sapiens, MIA PaCa-2, 96 h; cells counted 4 days later, Cell Counting Kit-8. The protocol:
as §1

Test [5] concerns prostate cancer cell line DU 145. The test is described as follows: Cell proliferation inhibitory activity, DU 145. It counts as cell-based, human. Conditions: Homo sapiens, 96 h, cells counted 4 days later with Cell Counting Kit-8. An outline of the steps:
as §3

For test [6], the system named is colon carcinoma cell line SW620. The test is described as follows: Cell proliferation inhibitory activity, SW620. In kind it is cell-based, human. Conditions: Homo sapiens, SW-620, 96 h, cells counted 4 days later with Cell Counting Kit-8. The method in brief:
as §3

The target in a further test is T4, recombinant human βARK1 (Homo sapiens, UniProt P25098).
T4 construct: made in house; host or cells: Sf-9 insect cells (baculovirus, pBacPAK8)
T4 sequence (P25098 1-689): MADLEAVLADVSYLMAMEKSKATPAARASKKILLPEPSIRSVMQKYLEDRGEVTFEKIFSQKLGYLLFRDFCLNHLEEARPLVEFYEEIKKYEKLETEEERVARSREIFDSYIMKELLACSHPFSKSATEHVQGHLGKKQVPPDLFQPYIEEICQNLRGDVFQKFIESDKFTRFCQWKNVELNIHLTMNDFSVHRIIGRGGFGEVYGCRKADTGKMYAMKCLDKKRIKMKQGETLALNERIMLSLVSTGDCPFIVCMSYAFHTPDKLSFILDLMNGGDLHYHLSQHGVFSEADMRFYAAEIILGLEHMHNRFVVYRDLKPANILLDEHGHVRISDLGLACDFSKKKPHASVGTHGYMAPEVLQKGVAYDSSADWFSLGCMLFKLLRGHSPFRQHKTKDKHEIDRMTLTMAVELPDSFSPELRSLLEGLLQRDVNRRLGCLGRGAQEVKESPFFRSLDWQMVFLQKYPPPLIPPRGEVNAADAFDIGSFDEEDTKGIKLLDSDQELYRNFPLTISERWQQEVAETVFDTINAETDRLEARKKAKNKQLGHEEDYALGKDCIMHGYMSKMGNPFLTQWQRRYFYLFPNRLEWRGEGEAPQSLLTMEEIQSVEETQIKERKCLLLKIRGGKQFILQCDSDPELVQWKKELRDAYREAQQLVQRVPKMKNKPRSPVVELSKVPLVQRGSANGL
As to the kind of experiment: Inhibitory activity against βARK1 (33P phosphorylation of synthetic peptide). Conditions: recombinant human βARK1, 60 minutes at room temperature. In kind it is biochemical. On the procedure: Human βARK1 was amplified by PCR based on the base sequence of human βARK1 mRNA registered in GenBank (Accession No. M80776) using a human leukocyte cDNA library (Gibco BRL Cat. No. 10421-022) as a template. The amplified cDNA fragment was inserted into a pBacPAK8 vector (Clontech) to construct a plasmid.
Recombinant human βARK1 was expressed using the BacPAK Baculovirus Expression System (Clontech, Cat. No. K1601-1). 1×10^6 Sf-9 cells were adhered to a 35 mm dish in 2.5 mL of TMN-FH Insect Medium containing 10 vol % FBS (Pharminogen, Cat. No. PM-21227M) and cultured overnight at 27° C. On the following day, the medium was removed and 500 ng of the above plasmid, BacPAK6 viral DNA cleaved with Bsu36I (5 μL) and 1.5 mL of the same medium mixed with 4 μL of Bacfectin were added followed by culturing for 5 hours, further adding 1.5 mL of medium and subsequently culturing for 5 days. […] The culture supernatant after 5 days was recovered and a plaque assay was carried out to isolate single plaques. These were then infected into Sf-9 cells and the resulting culture supernatant was designated as Passage 1 (1−3×10^11 pfu/mL). Passage 1 was added to 3×10^7 Sf-9 cells to a multiplicity of infection (MOI) of 0.1 (pfu/cell), suspension culturing was carried out for 5 days using a spinner flask, and the resulting culture supernatant was designated as Passage 2 (4×10^10 pfu/mL) and used as a viral liquid for large-volume expression.
Sf-9 cells at 3×10^9 cells/200 mL were infected by adding Passage 2 to an MOI of 100 followed by addition of medium to bring to a liquid volume of 2 L and further culturing for 3 days. After recovering the cells by centrifugation and washing three times with PBS, the cells were suspended in 100 mL of Lysis Buffer (20 mmol/L HEPES-HCl (pH 7.2), 5 mmol/L EDTA, 3 mmol/L phenylmethylsulfonyl fluoride (PMSF)). After lysing the cells by ultrasonic treatment at low temperature, the supernatant was recovered by centrifuging (45,000×g, 15 minutes) (sup1). NaCl was added to the resulting supernatant to a final concentration of 250 mmol/L followed by ultracentrifugation (300,000×g, 60 minutes) and using the subsequent supernatant as a crude cell extract (sup2).
Purification was carried out with reference to the literature (Benovic, J. L., Methods Enzymol. 1991; 200: 351-362; Kim, C. M. et al., Receptor 1993; 3: 39-55; Sohlemann, P. et al., FEBS Letters 1993; 324: 59-62). The crude cell extract was accurately brought to a volume of 400 mL with Buffer C (20 mmol/L HEPES-HCl (pH 7.2), 5 mmol/L EDTA, 0.02 vol % Triton X-100) followed by loading onto a 50 mL SP-Sepharose FF (Amersham Pharmacia Biotech) column equilibrated with Buffer C. […] ETA was carried out on each fraction using anti-GRK2 antibody (Santa-Cruz Cat. No. SC-562) and the positive fractions were collected (GRK2=βARK1). This was then diluted three-fold with Buffer C and loaded on a 5 mL HiTrap Heparin column (Amersham Pharmacia Biotech) column equilibrated with Buffer C. After washing the column with Wash Buffer (100 mmol/L NaCl, Buffer C), the column was eluted with an NaCl concentration gradient (100 to 600 mmol/L NaCl for 100 minutes, flow rate: 1 mL/min). The positive fractions as determined by ETA were collected and stored in a freezer at −80° C.
A synthetic peptide having an amino acid sequence of biotinated-[…] was used in accordance with a previous report (Chen, C. Y. et al., J. Biol. Chem. 1993; 268: 7825-7831). This synthetic peptide can also be synthesized with reference to known synthesis methods (for example, Chen, C. Y. et al., J. Biol. Chem. 1993; 268: 7825-7831, Biochemistry 1991; 30: 5118-5125). 2 μl of a DMSO solution in which the test compound was diluted to as to be […] the final concentration was dispensed into a 96-well plate (round bottom) (Falcon 351190) (final concentration: 4 vol % DMSO). […]

T1 sequence (Q00526 whole entry): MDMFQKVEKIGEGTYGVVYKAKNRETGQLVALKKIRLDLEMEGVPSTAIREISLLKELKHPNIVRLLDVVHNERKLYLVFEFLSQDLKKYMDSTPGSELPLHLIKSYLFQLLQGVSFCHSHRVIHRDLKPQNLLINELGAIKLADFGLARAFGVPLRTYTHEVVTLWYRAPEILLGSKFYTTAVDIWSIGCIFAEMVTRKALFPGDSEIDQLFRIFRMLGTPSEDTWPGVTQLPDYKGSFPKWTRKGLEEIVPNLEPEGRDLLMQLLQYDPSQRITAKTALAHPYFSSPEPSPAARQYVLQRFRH
T1 sequence (P24864 whole entry partner): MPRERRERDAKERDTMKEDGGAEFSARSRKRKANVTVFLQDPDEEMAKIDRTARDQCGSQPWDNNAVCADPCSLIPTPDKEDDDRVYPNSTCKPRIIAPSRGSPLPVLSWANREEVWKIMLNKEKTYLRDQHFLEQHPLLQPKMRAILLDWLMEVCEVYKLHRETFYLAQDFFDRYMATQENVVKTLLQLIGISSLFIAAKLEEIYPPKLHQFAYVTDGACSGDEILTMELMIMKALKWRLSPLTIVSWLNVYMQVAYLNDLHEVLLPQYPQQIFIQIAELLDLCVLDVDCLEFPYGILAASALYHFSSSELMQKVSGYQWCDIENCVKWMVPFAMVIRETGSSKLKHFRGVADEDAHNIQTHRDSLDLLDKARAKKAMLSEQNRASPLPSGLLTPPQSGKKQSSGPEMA
T3 sequence (P06493 whole entry): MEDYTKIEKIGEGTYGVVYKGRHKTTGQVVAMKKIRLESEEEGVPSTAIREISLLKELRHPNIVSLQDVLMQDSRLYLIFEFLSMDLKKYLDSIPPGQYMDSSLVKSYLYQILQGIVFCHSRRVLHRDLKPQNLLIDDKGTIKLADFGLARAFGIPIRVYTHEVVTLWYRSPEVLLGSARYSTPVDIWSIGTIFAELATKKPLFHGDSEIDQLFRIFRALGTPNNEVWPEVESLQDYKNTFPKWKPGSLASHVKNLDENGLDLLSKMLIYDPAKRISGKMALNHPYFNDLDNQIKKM
T3 sequence (P14635 whole entry partner): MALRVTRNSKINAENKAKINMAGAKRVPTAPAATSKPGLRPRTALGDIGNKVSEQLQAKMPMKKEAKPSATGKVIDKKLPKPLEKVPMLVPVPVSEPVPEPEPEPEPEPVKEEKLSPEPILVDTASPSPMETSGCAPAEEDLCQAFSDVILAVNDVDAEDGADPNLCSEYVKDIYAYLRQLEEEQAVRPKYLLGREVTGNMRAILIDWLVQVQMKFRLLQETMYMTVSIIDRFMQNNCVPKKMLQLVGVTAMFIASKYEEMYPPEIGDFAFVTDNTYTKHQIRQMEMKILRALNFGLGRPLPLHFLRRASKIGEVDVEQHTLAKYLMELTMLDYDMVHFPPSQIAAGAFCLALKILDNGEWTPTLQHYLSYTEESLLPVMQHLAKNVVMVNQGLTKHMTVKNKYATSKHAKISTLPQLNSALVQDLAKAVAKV

For `CC(Nc1cccc(O)c1)C(=O)Nc1nc2ccc3[nH]ncc3c2s1` (stereo not drawn) [compound 23], the IC50 in test [1] was 1300 nM; at CDK3/Cyclin E complex, 47 nM; in [2], 1400 nM; with leukemia cell line KG-1a, below 100 nM; at Aurora A, 47 nM; at CDK2/Cyclin E complex it was 30 nM. The IC50 in test [3] was determined as 1600 nM; at CDK1/Cyclin B complex it was 150 nM; in test [4], 3500 nM; in [5] it was 1600 nM; in [6] it was 500 nM.
With `CC(C)(Nc1ccc(Cl)c(C(=O)NOCc2ccccc2)c1)C(=O)Nc1nc2c(C(F)(F)F)cc3[nH]ncc3c2s1` [compound 98], the IC50 is 128 nM on CDK3/Cyclin E complex; 1800 nM in test [2]; 65 nM on Aurora A; 2600 nM in test [3]; 4000 nM in test [4]; 4400 nM in [5]. In test [6], this molecule had an IC50 of 500 nM.
Take `CC(C)(Nc1ccc(Cl)c(OCC(O)CO)c1)C(=O)Nc1nc2c(C(F)(F)F)cc3[nH]ncc3c2s1` (stereo not drawn) [compound 99]: the IC50 in [1] was 4400 nM; on CDK3/Cyclin E complex it was 8.7 nM; in [2] it was 4100 nM; in the test with leukemia cell line KG-1a, 300 nM; at Aurora A it was 142 nM; at CDK2/Cyclin E complex, 20 nM. The IC50 in test [3] worked out at 3000 nM; at CDK1/Cyclin B complex, 140 nM; in test [4], 4500 nM; in test [5] it was 1700 nM; in test [6], 700 nM.
For the molecule `Cc1cc2[nH]ncc2c2sc(NC(=O)C3(Nc4ccc(Cl)cc4)CC3)nc12` [compound 127], the IC50 in test [1] was 4900 nM; at CDK3/Cyclin E complex, 185 nM; in test [2], 3100 nM; in the test on leukemia cell line KG-1a it was below 100 nM; at CDK2/Cyclin E complex, 128 nM; in test [3], 4300 nM. Also, the IC50 at recombinant human βARK1 was 6.2 nM; in test [5], 3000 nM; in test [6] it was 700 nM.
With `CNC(=O)c1cc(NC(C)(C)C(=O)Nc2nc3c(C(F)(F)F)cc4[nH]ncc4c3s2)ccc1F` [compound 137], the IC50 was 3000 nM in test [1]; 12 nM on CDK3/Cyclin E complex; 400 nM in test [2]; below 100 nM in the test with leukemia cell line KG-1a; 40 nM on CDK2/Cyclin E complex; 1900 nM in [3]. In addition, the IC50 on CDK1/Cyclin B complex worked out at 39 nM; in test [4], 3100 nM; in test [5], 400 nM; in test [6], 200 nM.
With `CC(C)(Nc1ccc(F)c(C(N)=O)c1)C(=O)Nc1nc2c(C(F)(F)F)cc3[nH]ncc3c2s1` [compound 138], the IC50 in [1] amounted to 4500 nM; at CDK3/Cyclin E complex, 12 nM; in [2], 1600 nM; on Aurora A it was 263 nM; on CDK2/Cyclin E complex, 37 nM; at CDK1/Cyclin B complex, 53 nM. The IC50 in [4] was found to be 4300 nM; in test [5], 2300 nM; in test [6], 2100 nM.

The record behind these values is US7879887B2, “α-amino acid derivatives and medicaments containing the same as an active ingredient” (Nissan Chemical Industries, Ltd., priority 2006, dated 2011).
